# Measured values from patent US9932341B2, “Use of pyrazolopyrimidine derivatives for the treatment of PI3K-delta related disorders” (Incyte Corporation, priority 2013, dated 2018).
# pIC50: −log10 of the molar value.
# Molecular target: PI3Kδ (p110δ/p85α) (Homo sapiens (Human), UniProt O00329)
# Assay: PI3Kδ Scintillation Proximity Assay (Example A3)
# Type: biochemical
# Conditions: 20 μM ATP, 20 μM PIP2, 4 nM PI3Kδ, read-out: PI3Kδ SPA IC50
# Description: [γ-^33P]ATP (10 mCi/mL) was purchased from PerkinElmer (Waltham, Mass.). […] PI3Kδ (p110δ/p85α) was purchased from Millipore (Bedford, Mass.). ATP, MgCl2, DTT, EDTA, MOPS and CHAPS were purchased from Sigma-Aldrich (St. Louis, Mo.). Wheat Germ Agglutinin (WGA) YSi SPA Scintillation Beads was purchased from GE healthcare life sciences (Piscataway, N.J.).
# The kinase reaction was conducted in polystyrene 384-well matrix white plate from Thermo Fisher Scientific in a final volume of 25 μL. Inhibitors were first diluted serially in DMSO and added to the plate wells before the addition of other reaction components. The final concentration of DMSO in the assay was 0.5%. The PI3K assays were carried out at room temperature in 20 mM MOPS, pH 6.7, 10 mM MgCl2, 5 mM DTT and CHAPS 0.03%. Reactions were initiated by the addition of ATP, the final reaction mixture consisted of 20 μM PIP2, 20 μM ATP, 0.2 μCi [γ-^33P] ATP, 4 nM PI3Kδ. […] 25 mM EDTA, 400 μM ATP. The final concentration of SPA beads was 1.0 mg/mL. After the plate sealing, plates were shaken overnight at room temperature and centrifuged at 1800 rpm for 10 minutes, the radioactivity of the product was determined by scintillation counting on Topcount (PerkinElmer). IC50 determination was performed by fitting the curve of percent control activity versus the log of the inhibitor concentration using the GraphPad Prism 3.0 software.
# PI3Kδ (p110δ/p85α), sequence (O00329 whole entry): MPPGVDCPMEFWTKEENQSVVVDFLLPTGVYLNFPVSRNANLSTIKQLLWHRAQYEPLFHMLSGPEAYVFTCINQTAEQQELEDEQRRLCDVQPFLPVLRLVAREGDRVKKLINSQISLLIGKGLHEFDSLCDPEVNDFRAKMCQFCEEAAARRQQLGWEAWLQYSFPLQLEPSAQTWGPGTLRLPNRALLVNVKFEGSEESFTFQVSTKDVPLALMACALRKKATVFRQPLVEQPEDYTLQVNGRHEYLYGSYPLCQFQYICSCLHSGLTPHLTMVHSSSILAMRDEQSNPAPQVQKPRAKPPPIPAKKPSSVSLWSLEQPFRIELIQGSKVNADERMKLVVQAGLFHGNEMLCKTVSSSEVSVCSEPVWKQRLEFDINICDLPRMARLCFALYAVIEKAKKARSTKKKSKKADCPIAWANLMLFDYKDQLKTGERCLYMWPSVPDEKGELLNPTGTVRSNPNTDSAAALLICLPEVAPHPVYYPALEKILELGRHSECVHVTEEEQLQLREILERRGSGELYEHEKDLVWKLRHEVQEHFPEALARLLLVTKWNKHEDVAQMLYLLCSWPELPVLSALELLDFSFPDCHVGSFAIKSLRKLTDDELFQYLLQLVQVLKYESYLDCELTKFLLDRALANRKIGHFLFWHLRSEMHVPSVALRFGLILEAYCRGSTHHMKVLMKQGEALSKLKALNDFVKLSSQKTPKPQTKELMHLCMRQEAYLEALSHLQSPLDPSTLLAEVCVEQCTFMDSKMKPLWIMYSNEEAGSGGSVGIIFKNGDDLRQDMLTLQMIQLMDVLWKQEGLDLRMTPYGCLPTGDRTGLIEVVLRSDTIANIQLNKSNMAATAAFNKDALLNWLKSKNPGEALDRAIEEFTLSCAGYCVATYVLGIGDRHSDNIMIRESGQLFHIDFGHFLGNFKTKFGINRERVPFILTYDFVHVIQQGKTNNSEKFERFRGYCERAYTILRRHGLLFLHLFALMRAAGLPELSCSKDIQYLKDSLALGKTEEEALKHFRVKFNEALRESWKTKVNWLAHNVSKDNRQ
# PI3Kδ (p110δ/p85α), sequence (P27986 whole entry partner): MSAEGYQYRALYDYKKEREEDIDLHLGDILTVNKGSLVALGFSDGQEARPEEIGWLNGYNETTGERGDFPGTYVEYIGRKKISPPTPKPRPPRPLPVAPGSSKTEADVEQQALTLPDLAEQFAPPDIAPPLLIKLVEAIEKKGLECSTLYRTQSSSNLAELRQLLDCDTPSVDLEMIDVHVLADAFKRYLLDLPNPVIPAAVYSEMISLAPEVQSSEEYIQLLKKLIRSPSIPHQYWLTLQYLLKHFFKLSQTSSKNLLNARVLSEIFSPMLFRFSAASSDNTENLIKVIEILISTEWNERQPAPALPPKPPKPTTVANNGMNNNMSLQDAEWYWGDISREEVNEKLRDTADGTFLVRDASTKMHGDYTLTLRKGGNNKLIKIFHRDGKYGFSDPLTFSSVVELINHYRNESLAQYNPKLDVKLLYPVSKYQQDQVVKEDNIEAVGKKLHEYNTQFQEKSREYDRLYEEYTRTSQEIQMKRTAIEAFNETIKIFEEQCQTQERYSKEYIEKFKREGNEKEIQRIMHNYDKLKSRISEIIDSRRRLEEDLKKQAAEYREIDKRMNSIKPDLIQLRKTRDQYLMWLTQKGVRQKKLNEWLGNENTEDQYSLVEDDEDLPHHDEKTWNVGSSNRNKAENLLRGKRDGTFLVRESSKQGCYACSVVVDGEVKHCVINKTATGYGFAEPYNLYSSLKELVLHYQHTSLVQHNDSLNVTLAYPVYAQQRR
row,pIC50,SMILES
1,> 8.00,"COc1c(C(C)n2nc(C)c3c(N)ncnc32)cc(Cl)c(C#N)c1C1CNC1 (single isomer, unassigned) [Example 261, 4-[1-(4-Amino-3-methyl-1H-pyrazolo[3,4-d]pyrimidin-1-yl)ethyl]-2-azetidin-3-yl-6-chloro-3-methoxybenzonitrile]"
2,> 8.00,"COc1c(C(C)n2nc(C)c3c(N)ncnc32)cc(Cl)c(C#N)c1C1CN(C)C1 (single isomer, unassigned) [Example 262, 4-[1-(4-Amino-3-methyl-1H-pyrazolo[3,4-d]pyrimidin-1-yl)ethyl]-6-chloro-3-methoxy-2-(1-methylazetidin-3-yl)benzonitrile]"
3,> 8.00,"COc1c(C(C)n2nc(C)c3c(N)ncnc32)cc(Cl)c(C#N)c1C1CN(CCO)C1 (single isomer, unassigned) [Example 268, 4-[1-(4-Amino-3-methyl-1H-pyrazolo[3,4-d]pyrimidin-1-yl)ethyl]-6-chloro-2-[1-(2-hydroxyethyl)azetidin-3-yl]-3-methoxybenzo nitrile]"
4,> 8.00,"COc1c(C(C)n2nc(C)c3c(N)ncnc32)cc(Cl)c(C#N)c1C1CN(C(C)=O)C1 (single isomer, unassigned) [Example 281, 2-(1-Acetylazetidin-3-yl)-4-[1-(4-amino-3-methyl-1H-pyrazolo[3,4-d]pyrimidin-1-yl)ethyl]-6-chloro-3-methoxybenzonitrile]"
5,> 8.00,"COc1c(C(C)n2nc(C)c3c(N)ncnc32)cc(Cl)c(C#N)c1C1CN(S(C)(=O)=O)C1 (single isomer, unassigned) [Example 285, 4-[1-(4-Amino-3-methyl-1H-pyrazolo[3,4-d]pyrimidin-1-yl)ethyl]-6-chloro-3-methoxy-2-[1-(methylsulfonyl)azetidin-3-yl]benzonitrile]"
6,> 8.00,"COC(=O)N1CC(c2c(C#N)c(Cl)cc(C(C)n3nc(C)c4c(N)ncnc43)c2OC)C1 (single isomer, unassigned) [Example 289, Methyl 3-{3-[1-(4-amino-3-methyl-1H-pyrazolo[3,4-d]pyrimidin-1-yl)ethyl]-5-chloro-6-cyano-2-methoxyphenyl}azetidine-1-carboxylate]"
7,> 8.00,"COc1c(C(C)n2nc(C)c3c(N)ncnc32)cc(Cl)c(C#N)c1C1CN(C(=O)NC(C)(C)C)C1 (single isomer, unassigned) [Example 292, 3-{3-[1-(4-Amino-3-methyl-1H-pyrazolo[3,4-d]pyrimidin-1-yl)ethyl]-5-chloro-6-cyano-2-methoxyphenyl}-N-(tert-butyl)azetidine-1-carboxamide]"
8,> 8.00,"COc1c(C(C)n2nc(C)c3c(N)ncnc32)cc(Cl)c(C#N)c1C1CN(C(N)=O)C1 (single isomer, unassigned) [Example 293, 3-{3-[1-(4-Amino-3-methyl-1H-pyrazolo[3,4-d]pyrimidin-1-yl)ethyl]-5-chloro-6-cyano-2-methoxyphenyl}azetidine-1-carboxamide]"
9,> 8.00,"COc1c(C(C)n2nc(C)c3c(N)ncnc32)cc(Cl)c(C#N)c1C1CN(C(=O)N(C)C)C1 (single isomer, unassigned) [Example 296, 3-{3-[1-(4-Amino-3-methyl-1H-pyrazolo[3,4-d]pyrimidin-1-yl)ethyl]-5-chloro-6-cyano-2-methoxyphenyl}-N,N-dimethylazetidine-1-carboxamide]"
10,> 8.00,"CCOc1c(C(C)n2cc(C)c3c(N)ncnc32)cc(Cl)c(C#N)c1C1CN(C(C)C)C1 (single isomer, unassigned) [Example 307, 4-[1-(4-Amino-5-methyl-7H-pyrrolo[2,3-d]pyrimidin-7-yl)ethyl]-6-chloro-3-ethoxy-2-(1-isopropylazetidin-3-yl)benzonitrile]"
11,> 8.00,"COc1c(C(C)n2nc(C)c3c(N)ncnc32)cc(C)c(C#N)c1C1CN(C[C@H](C)O)C1 (single isomer, unassigned) [Example 315]"
